Experimental data from patent US20190125745A1, “TREATMENT AND DIAGNOSIS OF CANCER” (Rgenix, Inc., priority 2014, published 2019).

Legend:
ApoE expression = ApoE expression by qRT-PCR in human melanoma cells
Description: (A-B) Parental MeWo cells were incubated in the presence of DMSO or GW3965 at the indicated concentrations. After 48 hours, total RNA was extracted, and the levels of ApoE (A) and DNAJA4 (B) were determined by qRT-PCR. n=3. (C) Cell invasion by 1×10^5 parental MeWo cells pre-treated with GW3965 or DMSO for 48 hours. n=6-7. p-values based on a one-sided student's t-test. […] (D) Endothelial recruitment by 5×10^4 parental MeWo cells pre-treated with GW3965 or DMSO for 48 hours. n=6-7. p-values based on a one-sided student's t-test. (E) Mice were fed with grain-based chow diet containing GW3965 (20 mg/kg) or a control diet. After 10 days, 4×10^4 parental MeWo cells were tail-vein injected into mice, and the mice were continuously fed with GW3965-containing chow or a control diet throughout the experiment.
(A-C) MeWo (A), HT-144 (B), and WM-266-4 (C) human melanoma cells were treated with GW3965 or T0901317 at the indicated concentrations for 48 hours, and the expression levels of ApoE were analysed by qRT-PCR. n=3. (D) Extracellular ApoE protein levels, quantified by ELISA, in serum-free conditioned media collected from HT-144 human melanoma cells treated with DMSO, GW3965, or T0901317 at 1 μM for 72 hours. n=3-4. […] (I-J) Relative ApoE expression, quantified by qRT-PCR, in MeWo (I) and HT-144 (J) cells transduced with a control shRNA or shRNAs targeting LXRα or LXRβ and subsequently treated with DMSO, GW3965, or T0901317 at 1 μM for 48 hours. n=3-9. (K) Extracellular ApoE protein levels, measured by ELISA, in serum-free conditioned media harvested from HT-144 cells transduced with a control shRNA or an shRNA targeting LXRα or LXRβ and treated with DMSO or GW3965 at 1 μM for 72 hours. n=3.
RNA was extracted from whole cell lysates using the Total RNA Purification Kit (17200, Norgen, Thorold, Canada). 600 ng of total RNA was then reverse transcribed into cDNA using the cDNA First-Strand Synthesis Kit (18080-051, Invitrogen), and quantitative real-time PCR amplification was performed as previously described (Pencheva et al., 2012) using an ABI Prism 7900HT Real-Time PCR System (Applied Biosystems, Austin, Tex.). […]
For every sample, 600 ng of RNA was reverse transcribed into cDNA using the cDNA First-Strand Synthesis kit (Invitrogen). […] Each reaction was carried out in quadruplicates, and ApoE mRNA expression levels were measured by quantitative real-time PCR amplification using an ABI Prism 7900HT Real-Time PCR System (Applied Biosystems). The relative ApoE expression was determined using the ΔΔCt method.

[1] = tested on: B16F10 mouse melanoma cells; experiment: Subcutaneous B16F10 tumor growth in C57BL/6 mice; format: in vivo; settings: for melanoma primary tumor growth in vivo (B16F10): chow, WO-2010-0138598 Ex. 9 10 or 100 mg/kg/day, SB742881 100 mg/kg/day
Description: FIG. 4. Therapeutic LXR Activation Inhibits Melanoma Tumor Growth. […] Representative tumor images shown correspond to tumors extracted at the final day (d12). n=10-18 (A), 8-10 (B). (C-E) Primary tumor growth by 1×10^6 MeWo (C), […] SK-Mel-334.2 (D), and 2×10^6 SK-Mel-2 (E) human melanoma cells subcutaneously injected into immunocompromised mice. […] Tumor images shown correspond to last day of measurements. n=6-34 (C), 8 (D), 5 (E). (F) 5×10^4 B16F10 cells were injected subcutaneously into C57BL/6-WT mice. Upon tumor growth to 150 mm^3, mice were fed continuously with a control chow or a chow containing GW3965 (150 mg/kg), and tumor growth was measured daily. n=6-13. […] Tumor volume was calculated as (small diameter)^2×(large diameter)/2. […] Scale bars, 5 mm (A-D), 50 μm (J, K), 25 μm (L).
The mice were palpated daily for tumor formation and after detection of tumors measuring […] in volume, the mice were assigned to a control chow or a chow containing each respective LXR agonist: LXR-623 (20 mg/kg/day), WO-2007-002563 Ex. 19 (100 mg/kg/day), WO-2010-0138598 Ex. 9 (10 mg/kg/day or 100 mg/kg/day), or SB742881 (100 mg/kg/day). The LXR drug compounds were formulated in the mouse chow by Research Diets, Inc. Tumor dimensions were measured using digital calipers, and tumor volume was calculated as (small diameter)^2×(large diameter)/2.

[2] = tested on: MeWo, HT-144, SK-Mel-2, SK-Mel-334.2 human melanoma cells; experiment: Cell invasion assay (trans-well matrigel); format: cell-based; settings: 1 μM, 72 hours; for inhibiting cancer progression phenotypes (cell invasion, endothelial recruitment): MeWo cells, versus lower potency LXR agonists
Description: FIG. 2. Activation of LXRβ Signaling Suppresses Melanoma Cell Invasion and Endothelial Recruitment. (A) Heat-map depicting microarray-based expression levels of LXR and RXR isoforms in the NCI-60 melanoma cell line collection. The heat map for these genes is extracted from the larger nuclear hormone receptor family heat map (FIG. 3). Color-map key indicates the change in standard deviations for the expression value of each receptor relative to the average expression value of all microarray-profiled genes (>39,000 transcript variants) in each cell line. (B) Cell invasion by 1×10^5 MeWo, 5×10^4 HT-144, 5×10^5 SK-Mel-2, and 5×10^4 SK-Mel-334.2 human melanoma cells. Cells were treated with DMSO, GW3965, T0901317, or Bexarotene at 1 μM for 72 hours and subjected to a trans-well matrigel invasion assay. n=4-8. (C) 5×10^4 MeWo, HT-144, SK-Mel-2, and SK-Mel-334.2 human melanoma cells were tested for their ability to recruit 1×10^5 endothelial cells in a trans-well migration assay, following treatment of the melanoma cells with DMSO, GW3965, T0901317, or Bexarotene at 1 μM for 72 hours. n=4-8. […] Scale bar, 50 μm. *p<0.05, **p<0.01, ***p<0.001, ****p<0.0001.
The cell invasion assay was performed as previously described in detail (Pencheva et al., 2012) using a trans-well matrigel invasion chamber system (354480, BD Biosciences). In brief, various melanoma cells were cultured in the presence of DMSO, GW3965, T0901317, or Bexarotene at 1 μM for 56 hours, after which melanoma cells were switched to starvation media (0.2% FBS) for 16 hours in the presence of each drug. Following starvation, cells were seeded into matrigel-coated trans-well inserts, and the invasion assay was allowed to proceed for 24 hours at […]. For ApoE antibody neutralization experiments, 40 μg/mL 1 D7 anti-ApoE blocking antibody (Heart Institute, University of Ottawa, Ottawa, Canada) or […] anti-IgG control antibody (AB-108-C, R&D Systems, Minneapolis, Minn.) was added to each trans-well insert at the start of the assay.
The cells were then serum starved for 16 hours in 0.2% FBS media in the presence of each corresponding drug or DMSO. Following serum starvation, the cells were subjected to the trans-well invasion assay using a matrigel invasion chamber system (354480, BD Biosciences). Invasion chambers were pre-equilibrated prior to the assay by adding 0.5 mL of starvation media to the top and bottom wells. Meanwhile, cancer cells were trypsinized and viable cells were counted using trypan blue. Cancer cells were then resuspended at a concentration of 2×10^5 cells/1 mL starvation media, and 0.5 mL of cell suspension, containing 1×10^5 cells, was seeded into each trans-well. The invasion assay was allowed to proceed for 24 hours at 37° C. […] Following fixation, the inserts were washed in PBS, cut out, and mounted onto slides using VectaShield mounting medium containing DAPI nuclear stain (H-1000, Vector Laboratories). The basal side of each insert was imaged using an inverted fluorescence microscope (Zeiss Axiovert 40 CFL) at 5× magnification, and the number of DAPI-positive cells was quantified using ImageJ.

LXRα = molecular target: T1, LXRα (Homo sapiens, UniProt Q13133); settings: cited from earlier work
T1 sequence (Q13133 1-447): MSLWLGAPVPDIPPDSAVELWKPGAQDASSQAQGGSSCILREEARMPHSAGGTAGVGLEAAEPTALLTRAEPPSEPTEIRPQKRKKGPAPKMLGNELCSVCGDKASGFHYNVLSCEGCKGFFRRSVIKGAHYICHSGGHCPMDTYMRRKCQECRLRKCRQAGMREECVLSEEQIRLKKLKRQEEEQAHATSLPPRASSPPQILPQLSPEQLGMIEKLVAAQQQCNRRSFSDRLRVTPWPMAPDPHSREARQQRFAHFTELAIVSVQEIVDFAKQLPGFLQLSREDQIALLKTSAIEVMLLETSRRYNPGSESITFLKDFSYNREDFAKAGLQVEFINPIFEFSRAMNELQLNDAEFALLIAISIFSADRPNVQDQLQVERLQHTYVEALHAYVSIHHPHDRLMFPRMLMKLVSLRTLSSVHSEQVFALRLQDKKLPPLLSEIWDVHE

ApoE promoter = ApoE promoter activity assay (luciferase, ME.1/ME.2); format: cell-based, human; settings: 1 μM
Description: FIG. 11. LXRβ Activation Suppresses Melanoma Invasion and Endothelial Recruitment by Transcriptionally Enhancing Melanoma-Cell ApoE Expression. […] Scale bar, 50 μm.
The ApoE promoter, consisting of a sequence spanning 980 base pairs upstream and 93 base pairs downstream of the ApoEgene, was cloned into a pGL3-Basic vector (E1751, Promega Corporation, Madison, Wis.) upstream of the firefly luciferase gene using NheI and SacI restriction enzymes. Then, multi-enhancer elements 1 (ME.1) and 2 (ME.2) were cloned directly upstream of the ApoE promoter using MluI and […] restriction enzymes. To assess ApoE promoter- and ME.1/ME.2-driven transcriptional activation by LXR agonists, 5×10^4 MeWo cells were seeded into a 24-well plate. […] To assess transcriptional activation by LXRα or LXRβ, 5×10^4 MeWo cells expressing a control shRNA or shRNA targeting LXRα or LXRβ were seeded into a 24-well plate. […] After 24 hours, cells were lysed, and cell lysate was analyzed for firefly and renilla luciferase activity using the Dual Luciferase Assay System (E1960, Promega) and a Bio-Tek Synergy NEO Microplate Reader. Firefly luciferase signal was normalized to renilla luciferase signal and all data are expressed relative to the luciferase activity ratio measured in the DMSO-treated control cells.

Structure (SMILES)	potency of inducing ApoE expression in vitro (ApoE expression)	melanoma primary tumor growth in vivo (B16F10) [1]	inhibiting cancer progression phenotypes (cell invasion, endothelial recruitment) [2]	EC50 (LXRα)	ability to upregulate ApoE transcription and protein expression upon melanoma cell depletion of LXRβ, but not LXRα (ApoE promoter)	primary tumor growth in vivo (FIG. 4) ([1]; mouse, in vivo)	ability to suppress invasion and endothelial recruitment upon knockdown of melanoma LXRβ, but not LXRα ([2]; MeWo, HT-144)
CC(C)(O)c1cn(-c2ccc(-c3cc(F)c(CO)c(S(C)(=O)=O)c3)cc2F)c(C(C)(C)c2c(Cl)cccc2Cl)n1 [Compound 112]	potently induce	significantly inhibited	more effective				
CC(C)(O)c1cn(-c2ccc(-c3cccc(S(C)(=O)=O)c3)cc2)c(C(C)(C)c2ccccc2Cl)n1 [Compound 113]				101 to 1000 nM			
O=S(=O)(c1ccccc1)N(CC(F)(F)F)c1ccc(C(O)(C(F)(F)F)C(F)(F)F)cc1 [TO901317 110]	potently induce				abrogated	inhibit	abrogated
CC(CCOc1cccc(CC(=O)O)c1)N(Cc1cccc(C(F)(F)F)c1Cl)CC(c1ccccc1)c1ccccc1 (centres unmarked) [SB742881 109]	potently induce	significantly inhibited	more effective				
